According to patent US9283277B2, “Methods and compositions for the treatment of obesity” (Children's Medical Center Corporation, priority 2008, dated 2016):
Each block holds one molecule with its values, some of them ahead of it.

Columns and labels:
blood brain barrier = assay: Blood brain barrier permeability with Fluoro-gold in PBA-treated HFD-fed mice; format: in vivo; details: HFD-fed wt male mice; PBA 12 days; Fluoro-gold IP 15 mg/kg
Procedure: Leptin resistance in obesity arises due to both impairment of leptin action in the hypothalamus and defects in the transport of leptin in the blood brain barrier^14,42. […] Three days after the injections, mice were anesthetized and perfused with saline and then 4% paraformaldehyde. After the fixation, brains were removed. Following the necessary further fixation and sectioning, Fluoro-gold staining was performed on the whole brain slices. […] Reactivity against the Fluoro-gold is not different between the vehicle and PBA-treated groups. Fluoro-gold-labeled neurons should be present in the areas like ventro-medial hypothalamus (VMH), dorso-medial hypothalamus (DMH) and lateral hypothalamic area (LHA), if the BBB permeability is perturbed. […] (data not shown)

HFD-fed obese mice = assay: PBA alone in HFD-fed or ND-fed mice: bodyweight, hypothalamic PERK and leptin-stimulated Stat3 phosphorylation; format: in vivo
Procedure: (§1) C57BL/6 mice that were kept on high fat diet feeding for 25 weeks were either treated with vehicle or PBA (1 g/kg/day) for 10 days. Following the pretreatment period mice were given daily leptin (5 mg/kg/day, IP) treatment. (a) Bodyweight (g), (b) % decrease in the bodyweight, and (c) 24 hour food intake (g) during the 30 days of leptin administration. Metabolic cage analysis was performed after 25 days of treatment (d) O2 consumption (ml/kg/hr), (e) CO2 production (ml/kg/hr), (f) X-axis ambulatory activity, (g) Respiratory exchange ratio (VCO2/VO2), (h) Heat generation (kcal/hr). Dexa scan analysis of (i) Lean body mass (g), (j) Fat % and (k) Total fat amount (g). C57BL6 mice were fed a HFD for a period of 25 weeks and then either treated with PBA (1 g/kg) or VEH for 16 days. (1) PERK phosphorylation in the hypothalamus extracts. (m) Leptin-stimulated Stat3^Tyr705 phosphorylation in the VEH and PBA-treated HFD-fed mice. (n) C57BL6 mice were fed a ND for a period of 25 weeks and then either treated with PBA (1 g/kg) or VEH for 16 days. Following the treatment period mice were starved for six hours and subsequently injected with leptin (IP, 1 mg/kg). Stat3^Tyr705 phoshorylation and total Stat levels were examined in the hypothalamus extracts. (n=6 in each group). Error bars are ±S.E.M., P values are determined by Student's t-test. (*p<0.05, **p<0.01, ***p<0.001)
Mice were fed a HFD (60%) for 25 weeks and following an acclimation PBA (1 gr/kg/day) and vehicle treatment was initiated. (a) Bodyweight, (b) % decrease in bodyweight and (c) daily food intake of VEH and PBA-treated HFD-fed obese mice were analyzed during the 16 days of treatment period. (n=5 in each group) Error bars are ±S.E.M., P values are determined by Student's t-test (*p<0.05, **p<0.01, ***p<0.001).
To investigate whether PBA treatment reduces the ER stress, we analyzed the PERK phosphorylation in the HFD-fed mice, which were either treated with VEH or PBA for 16 days. […] To investigate whether leptin-stimulated activation of LepRB signaling is increased in the hypothalamus of the PBA-treated HFD-fed obese mice, we intraperitoneally injected leptin (0.75 mg/kg) following a six-hour fast and analyzed the Stat3^Tyr705 phosphorylation in the hypothalamus extracts of VEH and PBA-treated mice. […] We also analyzed the leptin-stimulated Stat3^Tyr705 phosphorylation in the hypothalamus of the wt mice, which were either treated with vehicle or PBA for 16 days.

[1] = tested on: HFD-fed obese C57BL/6 mice; assay: PBA pretreatment and leptin in HFD-fed obese mice (bodyweight, metabolic cage, DEXA); format: in vivo
Procedure: as §1
Obesity owing to a high fat diet is fundamentally different from that seen in ob/ob mice in that it occurs in the face of high leptin levels. To determine whether PBA also sensitizes HFD-fed obese mice to leptin, mice that were kept on HFD for 25 weeks were pretreated with vehicle or PBA for 10 days, and then given leptin treatment (5 mg/kg/day). Leptin administration to the vehicle-treated group led to an acute weight loss, which was rapidly regained (FIG. 3a). By the end of treatment period, leptin created a slight but significant change in the body weight in the vehicle-treated group by reducing it from 42.42±0.27 g to 40.78±0.55 (3.8±0.9% decrease in bodyweight) (FIG. 3a,b). […] During the course of the experiment we placed the vehicle and PBA-treated groups in metabolic cages to investigate metabolic homeostasis in detail. […] Following the metabolic cage analysis we performed DEXA scan to analyze whole body fat content.

[2] = tested on: LepRB signaling (LepRB, Jak2, Stat3); assay: Leptin receptor signaling in LepRB-expressing 293 cells under tunicamycin-induced ER stress; format: cell-based, Human; details: tunicamycin 3 μg/ml (or DMSO) 4 hours, then leptin 100 ng/ml 45 minutes
Text: The leptin receptor belongs to the interleukin 6 (IL-6) receptor family of class I cytokine receptors^30. […] Binding of leptin to LepRb initiates a conformational change that leads to trans-autophosphorylation and activation of LepRb-associated Jak2^31,32 Activated Jak2 then phosphorylates the tyrosine residues within the LepRb/Jak2 complex to mediate downstream signaling. […] To examine whether UPR might alter the leptin signaling, LepRB-expressing 293 cells were first exposed to tunicamycin (3 μg/ml) to activate ER stress for a period of 4 hours and then treated with leptin (100 ng/ml) for 45 minutes. […] Finally, as a downstream element, leptin-stimulated Stat3 activation was analyzed.

[3] = tested on: hypothalamus of lean mice; assay: Tunicamycin infusion to the third ventricle of lean mice; format: in vivo; details: leptin 1 mg/kg IP 5½ hours after third ventricle tunicamycin or vehicle infusion, 30 minutes after leptin
Text: Having shown that ER stress is increased in the hypothalamus of HFD-fed mice and causes leptin resistance in the cellular systems, we sought to investigate whether leptin action could also be blocked by directly inducing ER stress in brains of lean mice.
Next, we investigated the expression patterns of leptin resistance markers such as neuropeptide Y (NPY) and agouti related peptide (AgRP) in the vehicle- and tunicamycin-infused mice. […] In addition, to exclude the possibility that tunicamycin infusion leads to a decay in mRNA degradation of NPY and AgRP due to a possible toxic effect, we analyzed mRNA levels of IR and insulin receptor substrate 1 (IRS1).
To assess whether increased ER stress and activation of UPR signaling would create leptin resistance and block the leptin-stimulated Stat3 activation in the hypothalamus, leptin (1 mg/kg/day) was intraperitoneally administered 5½ hours after tunicamycin infusion. The experiment was ended by dissection of the hypothalami 30 minutes after leptin administration. […] In contrast, administration of tunicamycin to the third ventricle and creation of ER stress, in complete accordance with our data obtained from 293 cells, blocked activation of Stat3 in the hypothalamus (data not shown).

[4] = HFD-fed mice, PBA 1 g/kg alone, 16 days, vs VEH
[5] = mice on HFD 25 weeks, leptin 5 mg/kg/day IP, 30 days, vehicle or PBA (1 g/kg/day) pretreated

BBB permeability (Fluoro-gold-labeled neurons in VMH, DMH, LHA) (blood brain barrier): not increased
Molecule: O=C(O)CCCc1ccccc1 [PBA, 4-phenyl butyric acid]
body weight (HFD-fed obese mice; [4]): did not reduce
food intake (HFD-fed obese mice; [4]): did not reduce
PERK phosphorylation in the hypothalamus (HFD-fed obese mice; HFD-fed obese mice, PBA 1 g/kg, 16 days, vs VEH): marked decrease
leptin-stimulated Stat3 Tyr705 phosphorylation in hypothalamus (HFD-fed obese mice; HFD-fed obese mice, PBA 16 days, leptin 0.75 mg/kg IP after six-hour fast): marked up-regulation
leptin-stimulated Stat3 Tyr705 phosphorylation in hypothalamus (HFD-fed obese mice; ND-fed lean wt mice, PBA 16 days vs VEH, leptin IP 1 mg/kg): did not cause a higher activation

Molecule: leptin: adipocyte-derived hormone that suppresses appetite
lean mass ([1]; HFD-fed mice, DEXA scan): does not change
initial body weight ([1]; mice on HFD 25 weeks, before leptin 5 mg/kg/day, vehicle or PBA pretreated 10 days): 42.42 ± 0.27 g
body weight at end of treatment period [1, 5]: 40.78 ± 0.55 g
decrease in bodyweight [1, 5]: 3.8±0.9%
leptin-induced Stat3 phosphorylation (Tyr705) [2]: significant increase
leptin-stimulated LepRB tyrosine phosphorylation [2]: marked increase
Stat3 phosphorylation (activation) in the hypothalamus [3]: marked increase
